This note sets out measurements from patent US20090181090A1, “Protein-Based Carrier System for Overcoming Resistance in Tumour Cells” (priority 2005, published 2009).

The IC50 is the concentration needed to halve the response being measured.

Test [1] has as its system UKF-NB3 Dxr-R. cells. As to the kind of experiment: MTT cytotoxicity test, doxorubicin-resistant neuroblastoma cells. Conditions: 5 days incubation. It counts as cell-based, human. The procedure: To test the cytotoxicity of the doxorubicin nanoparticles (Dxr-NP) produced, as compared to a doxorubicin solution (Dxr-Soln) and a liposomal doxorubicin preparation (CAELYX®), the following cell lines were used:
doxorubicin-resistant cells of the human neuroblastoma cell line of the Universitätsklinikum Frankfurt (UKF-NB3 Dxr-R.)
To determine the cytotoxicity, the MTT test was used. In this test the viability of the cells in the presence of different concentrations of a substance is determined and is then compared with a cell control. From the results, the IC50 value (inhibitory concentration 50), i.e. the concentration of a substance at which 50% of the cells die, can be calculated. […] After dissolving the crystals with SDS/DMF solution, the colour intensity can be measured photometrically. […]
One column of the wells contained pure medium and corresponded to the blank value; in a second column the cells for the growth control (100% value) were cultivated. […] After a further incubation at 37° C. overnight, the colour crystals had dissolved completely, and the colour intensity in each well was measured photometrically at […]. By subtracting the blank value from the measured values and with reference to the control, the cell viability can be expressed in percent.

The subject of test [2] is UKF-NB3 Par. cells. As to the kind of experiment: MTT cytotoxicity test, parental neuroblastoma cells. It counts as cell-based. Conditions: Homo sapiens, UKF-NB-3, 120 h, 5 days incubation. On the technique in general: Tetrazolium dyes change colour on reduction, which living cells bring about.

In brackets after ≈: the same amount, converted by molar mass. Read-outs that look alike come from different tables or passages of the source.

With `COc1cccc2c1C(=O)c1c(O)c3c(c(O)c1C2=O)C[C@@](O)(C(=O)CO)C[C@@H]3O[C@H]1C[C@H](N)[C@H](O)[C@H](C)O1` [Dxr-Soln, doxorubicin], the IC50 in test [1] was determined as 0.0535 µg/mL (≈ 0.0984 µM); in test [1] (Homo sapiens, UKF-NB-3, 120 h, read-out: IC50) it was 0.0535 µg/mL (≈ 0.0984 µM); in test [2], 0.0016 µg/mL (≈ 0.00294 µM).
